Reference: the METLIN SMRT retention time set (Domingo-Almenara et al. 2019)

Assay: gradient 5% acetonitrile 3 min, to 50% in 2 min, to 85% in 15 min, held 3 min, 100 µL/min
Conditions: column: Zorbax Extend-C18 2.1 x 50 mm; eluents: water / acetonitrile, 0.1% formic acid
Procedure, shortened: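 In both positive and negative ionization mode, a quadrupole time-of-flight mass spectrometer coupled to HPLC analyzed pure standards run in mixtures of ~100 molecules. The Zorbax Extend-C18 column (2.1 × 50 mm, 1.8 μm) was operated at 100 μL/min with water and acetonitrile, each containing 0.1% formic acid. The dead volume was 40 μL and the dwell volume 900 μL. Retention time came from adduct peaks that were computationally picked and individually inspected by hand.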

| RP-LC retention time [s] | Compound |
| --- | --- |
| 705 | CN(C)c1ccc(C(=O)NC2CCN(c3cc(-c4ccccc4)[nH]n3)C2)cc1 (stereo not drawn) |
| 920 | CC(C)(C)CC(C)(C)NC(=O)C1CCN(C(=O)c2ccccc2F)CC1 |
| 1010 | O=c1ccc(-c2ccc3c(c2)OCO3)nn1CCc1nc(-c2cccc(Cl)c2)no1 |
| 765 | CCCCN(C)C(=O)Cn1ccn2nc(-c3ccc(F)cc3)c(CO)c2c1=O |
| 1110 | Cc1cccc(N2CCN(Cc3nc(-c4ccc(N5CCC(C)CC5)nc4)no3)CC2)c1 |
| 822 | CCc1ccc(NS(=O)(=O)c2cc(-c3[nH]ncc3C(=O)N3CCCCC3)oc2C)cc1 |
| 712 | CCC(=O)N1CCc2cc(-c3ccc(C(=O)NCCCN4CCCC4=O)cc3)ccc21 |
| 604 | Fc1cccc(CSc2ccc(-n3ccnc3)nn2)c1 |
| 542 | NS(=O)(=O)c1ccc(CCNC(=O)c2ccc(=O)[nH]n2)cc1 |
| 1150 | C=CCSc1nc2ccccc2c2nc(-c3ccncc3)nn12 |
| 876 | CN(CCc1noc(COc2ccccc2F)n1)C(=O)NCCc1ccccc1 |
| 846 | Cc1ccc(-n2c(=O)c3c(cc(C)n3C)n(CC(=O)Nc3ccccc3C)c2=O)cc1 |
| 682 | COc1ccccc1NC(=O)CN1CCC(c2nc(-c3cccs3)no2)CC1 |
| 749 | CC1(C(=O)NC2CC2)CC(c2ccccc2)=NO1 (stereo not drawn) |
| 832 | COc1ccc(-c2cn3c(CC(=O)Nc4ccc(F)c(Cl)c4)csc3n2)cc1 |
| 1070 | CC1=C(C(=O)Nc2cc(Cl)ccc2C(=O)NC(C)c2ccccc2)SCCO1 (stereo not drawn) |
| 1140 | Cc1ccc2nc(-c3ccccc3NC(=O)c3ccc(Br)o3)[nH]c2c1 |
| 979 | Cc1ccc(C(=O)Nc2c(C(=O)NCc3ccc4c(c3)OCO4)[nH]c3ccc(C)cc23)cc1 |
| 640 | COc1ccc2nc(NC3=NCN(Cc4ccco4)CN3)nc(C)c2c1 |
| 754 | N#Cc1ccc(C(=O)NC2CCN(c3ccc(F)cc3)C2=O)cc1 (stereo not drawn) |
| 886 | Cc1cc(-c2nnc(-c3ccco3)o2)c(C)n1CC(=O)NCc1cccc(Cl)c1 |
| 700 | CCOc1ccn(-c2ccc(F)cc2)c(=O)c1C(=O)Nc1ccc(Oc2ccnc(N)c2Cl)c(F)c1 |

| RP-LC retention time [s] | Compound |
| --- | --- |
| 625 | O=C(CSc1nnc2c3ccccc3nc(-c3ccco3)n12)NCc1nc2ccccc2[nH]1 |
| 611 | CC(C(=O)NCCCN1CCCCCC1)n1c(=O)c(C(F)(F)F)nc2ccccc21 (stereo not drawn) |
| 1220 | COc1ccccc1-c1nc(-c2ccc(S(=O)(=O)N3CCCCC3)cc2)no1 |
| 709 | COc1ccc(NC(=O)Cn2nc3cc(C)nc(N4CCCC4)n3c2=O)cc1 |
| 683 | Cc1nn(-c2ccc(-c3ccccc3)nn2)c(C)c1S(=O)(=O)N1CCN(C(C)C)CC1 |
| 954 | COc1ccc(-c2nnc(Cc3nc(-c4ccc(F)cc4)no3)o2)cc1 |
| 850 | O=C(COc1ccc(F)cc1)NCC(=O)N1CCCc2ccccc21 |
| 985 | Cc1ccc(NC(=O)C2CCN(S(C)(=O)=O)c3ccccc3O2)cc1Cl (stereo not drawn) |
| 768 | Cc1cccc(NC(=O)CN2C(=O)CC(C)S(=O)(=O)c3ccccc32)c1 (stereo not drawn) |
| 926 | Clc1ccc(-c2nc3ccc(Cl)cn3c2Nc2ccc3c(c2)OCO3)cc1 |
| 623 | O=C(c1cnn(-c2ccccc2)c1-n1cccc1)N1CCN(c2ccccn2)CC1 |
| 778 | COc1ccccc1CNC(=O)CN1CCN(Cc2ccc(F)cc2)C1=O |
| 509 | c1ccc(-c2cn(CCC3CCCCN3)nn2)cc1 (stereo not drawn) |
| 657 | CCc1ccc(Oc2cc(N3CCC(C(=O)NCCc4cccnc4)CC3)ncn2)cc1 |
| 721 | CCn1cc(CCNC(=O)Cc2ccccc2C)c2cccnc21 |
| 814 | Cc1ccc2nc(NC(=O)C3CCN(S(=O)(=O)c4ccc5[nH]c(=O)ccc5c4)CC3)sc2c1 |
| 729 | CCCN1C(=O)C2(NCCc3c2[nH]c2ccc(OC)cc32)c2cc(Br)ccc21 (stereo not drawn) |
| 893 | CCCn1nc2ccc(S(=O)(=O)N3CCC(C)CC3)cn2c1=O |
| 1070 | Cc1cccc(NS(=O)(=O)c2cn(CC(C)C)c3ncccc23)c1C |
| 888 | COc1ccc2c(=O)c(Oc3ccccc3F)c(C)oc2c1 |
| 748 | O=C(NCc1ccccc1)C1CCCN(S(=O)(=O)c2c[nH]c(C(=O)N3CCCC3)c2)C1 (stereo not drawn) |
| 667 | Cc1cc(C)c(S(=O)(=O)Nc2cccc(-c3cn4ccccc4n3)c2)c(C)c1 |

| RP-LC retention time [s] | Compound |
| --- | --- |
| 664 | CC(C)c1cc(=O)n(CC(=O)Nc2cccc3nsnc23)cn1 |
| 688 | COc1ccc(N2CCN(Cc3nc(-c4ccc(N5CCOCC5)nc4)no3)CC2)cc1 |
| 836 | CC1=NS(=O)(=O)c2cccnc2N1c1ccc(Br)cc1 |
| 758 | COc1ccc(CCS(=O)(=O)NCC2(O)CCOCC2)cc1 |
| 945 | CCN(CC)S(=O)(=O)N1CCCC(C(=O)NCCc2ccc(Cl)cc2)C1 (stereo not drawn) |
| 1100 | CSc1ccc(-c2noc(Cn3c(=O)n(-c4ccc(Cl)cc4)c(=O)c4sccc43)n2)cc1 |
| 984 | CCCn1cc(S(=O)(=O)NCc2ccc(C)c(C)c2)c2cccnc21 |
| 692 | CS(=O)(=O)N1CCC(CNC(=O)CCSc2ccccc2)CC1 |
| 642 | CCNC(=O)C1CCCN(c2nc3ncn(CC(=O)NCc4ccc(OC)cc4)c(=O)c3s2)C1 (stereo not drawn) |
| 604 | Cc1ccnc(N2CCCC(C(=O)NCC3CCN(Cc4cccc(Cl)c4)CC3)C2)n1 (stereo not drawn) |
| 758 | CC(C)CCn1nc2c(S(=O)(=O)N3CCOCC3)cccn2c1=O |
| 1010 | Cc1ccc(NC(=O)CSc2nnc3c4cc(-c5ccc(F)cc5)nn4ccn23)cc1Cl |
| 666 | CN(C)C(=O)Cn1c(=O)c2cccn2c2ccccc21 |
| 773 | COc1ccccc1OCC1c2ccsc2CCN1C(=O)CN(C(C)=O)C(C)C (stereo not drawn) |
| 1320 | Cc1ccc(NC(=O)c2sc(-n3cccc3)nc2C(C)C)cc1F |
| 647 | COC(=O)CNC(=O)NCC(=O)N1CCc2ccccc21 |
| 567 | Cc1cc(C)c2c(N3CCSCC3)nc(C(=O)NCc3ccccn3)nc2n1 |
| 799 | O=C(NCc1cccc(F)c1)c1cn2cc(Cl)ccc2n1 |
| 1110 | COc1ccc(NC(=O)c2cc(C)n3nc(-c4ccco4)cc3n2)cc1Cl |
| 849 | COc1cc(NC(=O)Cn2c(=O)n(-c3ccc(F)cc3)c3ncccc32)cc(OC)c1 |
| 830 | O=C(NC1CCCCC1)C1CCN(c2nc3ccc(-c4cncnc4)nc3s2)CC1 |
| 616 | O=C(NC1CCS(=O)(=O)C1)C1CCN(S(=O)(=O)c2cccs2)CC1 (stereo not drawn) |

| RP-LC retention time [s] | Compound |
| --- | --- |
| 724 | COc1ccc(N2CC(C(=O)NCc3ccccc3OC)CC2=O)cc1 (stereo not drawn) |
| 872 | CC1=C(c2ccc(C)cc2)S(=O)(=O)N=C1N1CCCN(C(=O)C2CCCC2)CC1 |
| 670 | CC(C)c1cc(N2CCN(c3ccccn3)CC2)n2ncc(-c3ccccc3)c2n1 |
| 599 | COc1ccc(NC(=O)N2CCN(C3=CC4=NCC(C)N4C=N3)CC2)cc1 (stereo not drawn) |
| 583 | Cn1cc(S(=O)(=O)N2CCC(C(=O)NCc3ccccn3)CC2)cc1C(=O)N1CCCC1 |
| 654 | COc1cccc(NC(=O)N2CC(C)Oc3ccc(C)cc32)c1 (stereo not drawn) |
| 823 | C[C@H]1CN(C(=O)CSc2ccccc2)C[C@@H]1c1nc(-c2cccnc2)no1 |
| 627 | O=C(CN1C(=O)C2CCCCN2c2ccc(C(=O)N3CCCC3)cc21)NCC1COCCO1 (stereo not drawn) |
| 734 | CCCC(O)c1nc2ccccc2n1CC(=O)N(c1ccccc1)C(C)C (stereo not drawn) |
| 926 | O=C(C1CC1)N1CCN(S(=O)(=O)c2cc(-c3noc(C4CCC4)n3)cs2)CC1 |
| 657 | COC(=O)c1nnn(CC(=O)NCc2ccc3c(c2)OCO3)c1C(=O)OC |
| 1000 | COc1cccc(Cn2c(=O)c3sccc3n(Cc3nc(-c4ccccc4)no3)c2=O)c1 |
| 981 | Fc1ccccc1-c1nn2c(CSc3ccccc3)nnc2s1 |
| 1430 | CCc1cccc(NC(=O)c2c(O)c3cccnc3n(-c3ccccc3)c2=O)c1 |
| 919 | CCOc1ccccc1NC(=O)C(CC)n1cnc2nc3c(cc2c1=O)CCCC3 (stereo not drawn) |
| 824 | COc1ccc(-c2nnc(N3CCC(C(=O)NCc4cc(F)ccc4F)CC3)o2)cc1 |
| 692 | Cc1cccc(CNC(=O)CCC(=O)N2CCSc3nc(C)cc(C)c32)c1 |
| 659 | O=C(Cn1cnc2c(nc3n2CCCCC3)c1=O)Nc1ccc2c(c1)OCCO2 |
| 900 | O=C(Cc1c(F)cccc1Cl)N1CC(c2nc(-c3ccccc3)no2)C1 |
| 1060 | CCC(C)n1ncn(-c2ccc(N3CCN(c4ccc(OC[C@@H]5CO[C@@](Cn6cncn6)(c6ccc(Cl)cc6Cl)O5)cc4)CC3)cc2)c1=O (stereo partly drawn) |
| 572 | COC(=O)c1c(NC(C)c2cccnc2)c2cccc(Cl)c2[nH]c1=O (stereo not drawn) |
| 740 | CC1CCN(C(=O)C2=NNc3ccccc3S2(=O)=O)CC1 |
